# PMC9321663, “The DevTox Germ Layer Reporter Platform: An Assay Adaptation of the Human Pluripotent Stem Cell Test” (Toxics, 2022)
# Like-named read-outs stand apart in the source and are kept apart here.
# Tests used:
# RUES2-GLR cells = experiment: DevTox GLR-Endo assay: decrease in total cell count, cytotoxicity (AEID 3098, CellCount_dn); settings: for Emax: Homo sapiens, read-out: Cell Count % Max Inhibition
# [1] = system: SOX17 (endoderm marker) in RUES2-GLR cells; experiment: DevTox GLR-Endo assay: decrease in percent SOX17-positive cells (AEID 3094, Sox17_dn); settings: for Hit Call: Table S2, SOX17-positive cells, cutoff 3*bmad; for HIT−CALL: tcpl plot AEID3094, COFF 20.3; for DevTox ACC: Table S2, percent SOX17-positive cells
# Method in brief: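 RUES2-GLR cells under endoderm differentiation exposed to test chemicals for 48 h in total, with 0.2% DMSO solvent control and SB431542 (1 µM) as developmental-toxicant control. Endpoints: decrease in total cell count and in percent SOX17-positive cells; n = 4 biological replicates minimum.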
# [2] = system: SOX2 (ectoderm and pluripotency marker) in RUES2-GLR cells; experiment: DevTox GLR-Endo assay: increase in percent SOX2-positive cells (AEID 3095, Sox2_up); settings: for MAX_MEAN: tcpl plot AEID3095, maximum mean response; for MAX_MED: tcpl plot AEID3095, maximum median response; for AC50 / Emax: Homo sapiens; for AC50: read-out: ga (winning model); for Emax: read-out: tp (winning model)
# [3] = system: SOX17 in H9 human ESC line; settings: SOX17 half-maximal inhibition concentration; read-out: hPST IC50; cited from earlier work
# [4] = system: SOX17 (endoderm marker) in RUES2-GLR cells; experiment: DevTox GLR-Endo assay: increase in percent SOX17-positive cells (AEID 3093, Sox17_up); type: cell-based, human; settings: for Emax: Homo sapiens; for HIT−CALL: tcpl plot AEID3093, COFF 20.3
# Protocol: (§1) The total test chemical incubation period was 48 h.
# (§2) (Supplementary Materials).
# H9 human ESC line = settings: cited from earlier work
# [5] = cited from earlier work; for Development Toxicant Classification: Table S2; for Classification: developmental toxicant classification (Teratogen / Non-Teratogen) of reference and training chemicals, ref DOI per chemical: 10.1093/toxsci/kft239, 10.1093/toxsci/kfaa014, 10.1177/026119290203000204, 10.1038/s41598-020-59542-x; for DT Class.: developmental toxicant classification, chemicals common with hPST
# in vitro = settings: human
# [6] = system: BRA (mesoderm marker) in RUES2-GLR cells; experiment: DevTox GLR-Endo assay: increase in percent BRA-positive cells (AEID 3096, Bra_up); type: cell-based, human; settings: for HIT−CALL: tcpl plot AEID3096, COFF 0.774; for MAX_MEAN: tcpl plot AEID3096, maximum mean response
# Protocol: as §1, §2
# [7] = Homo sapiens, read-out: DevTox % Max Inhibition
# [8] = Homo sapiens, read-out: MAX_MEAN
# [9] = Homo sapiens, read-out: MAX_MED
# [10] = Homo sapiens, read-out: tp (winning model)
# [11] = tcpl plot AEID3093, maximum mean response, read-out: MAX_MEAN
# [12] = tcpl plot AEID3093, maximum median response, read-out: MAX_MED
# [13] = cytotoxicity half-maximal concentration
# [14] = Homo sapiens, 48 h, read-out: DevTox-GLR Endo AC50 (µM), SOX17 half-maximal activity concentration, 48 h exposure
# [15] = Homo sapiens, read-out: ga (winning model), tcpl plot AEID3094, gain parameter of winning curve fit (log concentration, µM axis), hit calls only (converted)
Structure (SMILES),Emax (RUES2-GLR cells) [%],"Cell Count ACC (RUES2-GLR cells; human, 48 h) [µM]","Emax [1, 7] [%]","Emax [1, 8] [%]","Emax [1, 9] [%]","Emax [1, 10] [%]",Hit Call [1],HIT−CALL [1],MAX_MEAN [2] [Percent Activity],MAX_MED [2] [Percent Activity],IC50 [3] [µM],"Emax [4, 11] [%]","Emax [4, 12] [%]",HIT−CALL [4],DevTox ACC ([1]; 48 h exposure) [µM],hPST TC50 (H9 human ESC line; [13]) [µM],hPST TC50 (H9 human ESC line; hPST cytotoxicity) [µM],Development Toxicant Classification [5],Classification [5],CC50 at 48 h (in vitro) [µM],further results
CC(C)Cc1ccc(C(C)C(=O)O)cc1 (stereo not shown) [Ibuprofen],22.2,122.424,23.9,24.3,23.9,42.6,Positive,1,0.944,0.561,> 200,11.6,11.9,0,–,–,–,–,–,–,–
CC1=C(/C=C/C(C)=C/C=C/C(C)=C\C(=O)O)C(C)(C)CCC1,–,–,–,–,–,–,Positive,1,47.5,48.5,0.2,–,–,0,0.02117,140,140,Positive,Teratogen,–,"Cell Count ACC (RUES2-GLR cells): 4.122 µM; Cell Count % Max Inhibition (RUES2-GLR cells; Table S2, cell count relative to DMSO): 97.7228%; CC50 (RUES2-GLR cells; read-out: DevTox-GLR Endo CC50, cell count half-maximal concentration, 48 h exposure): 10.2 µM; SOX17 ACC relative to cytotoxic concentration (in words) [1]: below cytotoxic concentrations; DevTox % Max Inhibition ([1]; Table S2, percent SOX17-positive cells relative to DMSO): 100.964%; AC50 ([1]; read-out: DevTox-GLR Endo AC50, SOX17 half-maximal activity concentration, 48 h exposure): 0.16 µM; ga (winning model) ([1]; tcpl plot AEID3094, gain parameter of winning curve fit (log concentration, µM axis), hit calls only): −0.807; MAX_MEAN ([1]; tcpl plot AEID3094, maximum mean response): 101 Percent Activity; MAX_MED ([1]; tcpl plot AEID3094, maximum median response): 101 Percent Activity; tp (winning model) ([1]; tcpl plot AEID3094, top of winning curve fit (Hill or gain-loss), hit calls only): 100; ga (winning model) ([2]; tcpl plot AEID3095, gain parameter of winning curve fit (log concentration, µM axis), hit calls only): 1.54; tp (winning model) ([2]; tcpl plot AEID3095, top of winning curve fit (Hill or gain-loss), hit calls only): 39.6; DT Class. [5]: Pos; MAX_MEAN ([4]; tcpl plot AEID3093, maximum mean response): −11.9 Percent Activity; MAX_MED ([4]; tcpl plot AEID3093, maximum median response): −11.9 Percent Activity"
O=C1Cc2cc(CCN3CCN(c4nsc5ccccc45)CC3)c(Cl)cc2N1 [Ziprasidone],93.7,1.527,101,101,101,101,Positive,1,4.63,4.3,2.8,3.27,4.35,0,2.997,5.1,5.1,Positive,Teratogen,2.42,"AC50 [1, 14]: 3.57 µM; AC50 [1, 15]: 3.56 µM; AC50 [2]: 3.67 µM; Emax [2]: 4.2%; DT Class. [5]: Pos"
c1cc(-c2cnn3cc(-c4ccc(OCCN5CCCCC5)cc4)cnc23)ccn1 [Dorsomorphin],95.1,6.307,99.6,99.4,99.6,114,Positive,1,16.8,17,0.3,9.04,8.93,0,8.65,2.4,2.4,Positive,Teratogen,16.7,"AC50 [1, 14]: 17.1 µM; AC50 [1, 15]: 17 µM; AC50 [2]: 10.7 µM; Emax [2]: 38.7%; DT Class. [5]: Pos"
Nc1nc2ncc(CNc3ccc(C(=O)N[C@@H](CCC(=O)O)C(=O)O)cc3)nc2c(=O)[nH]1 [Folic Acid],13.7,>200,16.4,13.8,16.4,–,Negative,0,0.885,0.515,39,8.84,8.92,0,>200,84,84,–,–,> 200,"AC50 [1, 14]: > 200 µM"
Nc1nc2c(ncn2COCCO)c(=O)[nH]1 [Acyclovir],7.77,>200,7.79,8.36,7.79,–,Negative,0,2.09,0.473,> 200,6.68,7.67,0,–,–,–,–,–,–,"HIT−CALL [6]: 1; MAX_MEAN [6]: 0.981 Percent Activity; MAX_MED ([6]; tcpl plot AEID3096, maximum median response): 1.09 Percent Activity"
Cn1c(=O)c2c(ncn2C)n(C)c1=O [Caffeine],10.3,>200,9.41,6.68,9.41,–,Negative,0,0.413,0.416,> 400,9.91,11,0,>200,–,–,–,–,> 200,"AC50 ([1]; Homo sapiens, 48 h, read-out: DevTox-GLR Endo AC50 (µM)): > 200 µM; HIT−CALL [6]: 1; MAX_MEAN [6]: 1.09 Percent Activity"
